In brackets after ≈: the same amount, converted by molar mass. Where two headings read alike, the source gives them in different places.
Assays:
[1] = target: C-kinase (protein kinase C); assay: C-Kinase inhibitory activity test; type: biochemical; conditions: concentration at which enzyme activity was inhibited 50%
Experimental: (§1) Compound (I) obtained by the present invention was examined for C-kinase inhibitory activity and cell growth inhibitory activity by the following methods.
C-Kinase inhibitory activity test:
C-Kinase inhibitory activity of representative Compounds (I) was measured in accordance with the method of Y. Nishizuka, et al. [J. Biol. Chem., 257, 13341 (1982)]. The test was carried out on test compounds at varied concentrations, and the concentration at which the enzyme activity was inhibited 50% (IC50) was determined.

[2] = system: HeLaS3 cells (human uterine cervical cancer HeLa cells); assay: HeLaS3 cell growth inhibition test; type: cell-based; conditions: read-out: IC50, HeLaS3 cell growth inhibitory activity
Experimental: as §1
(§2) Cell growth inhibition tests:
(§3) MCF7 cells (4.5×10^4 cells/ml) pepared in RPMI 1640 medium containing 10% fetal calf serum, 10 μg/ml insulin and 10^-8 M estradiol are put into wells of a 96-well microtiter plate in the amount of 0.1 ml per each well. After incubation at 37° C. overnight in CO2 -incubator, 0.05 ml of a test sample appropriately diluted with the culture medium is added to each well. The cells are further cultured in CO2 -incubator, and then the culture supernatant is removed and the wells are washed once with PBS(-). Thereafter, 0.1 ml of fresh medium is added to each well, followed by culturing at 37° C. for 72 hours in CO2 -incubator. After the culture supernatant is removed, 0.1 ml of the culture medium containing 0.02% Neutral Red is added to each well, followed by culturing at 37° C. for one hour in CO2 -incubator, whereby the cells are stained. Then, the culture supernatant is removed and the cells are washed once with physiological saline. The pigment is extracted with 0.001N hydrochloric acid/30% ethanol and absorption is measured at 550 nm with a microplate reader. By comparing the absorption of intact cells with those of the cells treated with a test compound at known concentrations, the concentration of the test compound at which growth of the cells is inhibited 50% is calculated as IC50.
(2) HaLaS3 cell growth inhibition test:
HeLaS3 cells (3×10^4 cells/ml) prepared in MEM medium containing 10% fetal calf serum and 2 mM glutamine are put into wells of a 96-well microtiter plate in the amount of 0.1 ml per each well.
Thereafter, the test is carried out in the same manner as in (1).

[3] = system: MCF7 cells (human breast cancer cell MCF7); assay: MCF7 cell growth inhibition test; type: cell-based; conditions: read-out: IC50, MCF7 cell growth inhibitory activity
Experimental: as §1, §2
(1) MCF7 cell growth inhibition test:
as §3

[4] = system: COLO320DM cells (human colon adenocarcinoma cell COLO320DM); assay: COLO320DM cell growth inhibition test; type: cell-based; conditions: COLO 320DM, read-out: IC50, COLO320DM cell growth inhibitory activity
Experimental: as §1, §2
(3) COLO320DM cell growth inhibition test:
COLO320DM cells (10^5 cells/ml) prepared in RPMI 1640 medium containing 10% fetal calf serum, 100 U/ml penicillin and 100 μg/ml streptomycin are put into wells of a 96-well microtiter plate in the amount of 0.1 ml per each well. Thereafter, the test is carried out in the same manner as in (1) except that the cells are counted with a microcell counter. By comparing the number of intact cells with those of the cells treated with a test compound at known concentrations, the concentration of the test compound at which growth of the cells is inhibited 50% is calculated as IC50.

histamine release = conditions: in words, from other filings; cited from earlier work
[5] = in words, from other filing; cited from earlier work
C-kinase = conditions: in words, cited from earlier work; for inhibitory activity against C-kinase: from literature or other filings; for specificity of C-kinase inhibition: from literature
[6] = in words, from literature; cited from earlier work
[7] = HeLa S3, HeLaS3, Neutral Red, 72 hours
[8] = COLO320DM, cells counted with a microcell counter, 72 hours

SMILES	IC50, C-Kinase inhibitory activity [1] [µg/mL]	inhibitory activity against C-kinase (C-kinase)	specificity of C-kinase inhibition (C-kinase)	also measured
COC(=O)C1(O)CC2OC1(C)n1c3ccccc3c3c4c(c5c6ccccc6n2c5c31)C(=O)NC4O (centres unmarked) [Compound 5]	1.2 (≈ 2.48 µM)			IC50 [2, 7]: 1.53 µg/mL (≈ 3.16 µM); IC50 ([3]; MCF7, Neutral Red, 72 hours): 0.8 µg/mL (≈ 1.65 µM); IC50 [4, 8]: 2.55 µg/mL (≈ 5.27 µM)
CCSC1NC(=O)c2c1c1c3ccccc3n3c1c1c2c2ccccc2n1C1CC(O)(CO)C3(C)O1 (centres unmarked) [Compound 7]	0.18 (≈ 0.36 µM)			IC50 [2, 7]: 1.43 µg/mL (≈ 2.86 µM); IC50 ([3]; MCF7, Neutral Red, 72 hours): 5.08 µg/mL (≈ 10.2 µM); IC50 [4, 8]: 1 µg/mL (≈ 2 µM)
COC(=O)C1(O)CC2OC1(C)n1c3ccccc3c3c4c(c5c6ccccc6n2c5c31)C(=O)NC4 (centres unmarked) [Compound K-252]	0.016 (≈ 0.0342 µM)			IC50 ([2]; HeLa S3, 72 h): 0.2 µg/mL (≈ 0.428 µM); IC50 ([3]; MCF7, 72 h): 0.51 µg/mL (≈ 1.09 µM); IC50 ([4]; 72 h): 0.27 µg/mL (≈ 0.578 µM); activity to inhibit histamine release (histamine release): activity to inhibit histamine release; anti-allergic activity [5]: anti-allergic activity
NCCCCCCNS(=O)(=O)c1cccc2c(Cl)cccc12 [Compound W-7, N-(6-aminohexyl)-5-chloro-1-naphthalenesulfonamide]		low inhibitory activity against C-kinase	low specificity	
CC12OC(CC1(O)C(=O)O)n1c3ccccc3c3c4c(c5c6ccccc6n2c5c31)CNC4=O (centres unmarked) [KT-5556]				activity to inhibit histamine release (histamine release): activity to inhibit histamine release
CN[C@@H]1C[C@H]2O[C@@](C)([C@@H]1OC)n1c3ccccc3c3c4c(c5c6ccccc6n2c5c31)C(=O)NC4 [Staurosporine]				antibacterial activity [6]: antibacterial activity
CN(C)CCCN1c2ccccc2Sc2ccc(Cl)cc21 [chlorpromazine]		low inhibitory activity against C-kinase	low specificity	
ClCCN(Cc1ccccc1)Cc1ccccc1 [dibenamine]		low inhibitory activity against C-kinase	low specificity	
CCCCNc1ccc(C(=O)OCCN(C)C)cc1 [tetracaine]		low inhibitory activity against C-kinase	low specificity	
CN1CCN(CCCN2c3ccccc3Sc3ccc(C(F)(F)F)cc32)CC1 [trifluoperazine]		low inhibitory activity against C-kinase	low specificity	
